The source of these data is patent publication US20260015592A1, “NEDDYLATION-ACTIVATING ENZYME INHIBITORS AS VIRAL SENSITIZERS AND USES THEREOF” (priority 2022, published 2026).

Data set [1] relates to VSVΔ51. It is filed as cell-based, vesicular stomatitis virus.
The test system of data set [2] is primary murine hepatocytes.
Data set [3] has as its system VSVΔ51. It is filed as cell-based, vesicular stomatitis virus. The source holds these as a separate data set.
The next data set has as its system AAV2-Fluc. Put plainly: AAV2-Fluc production in HEK293 cells, functional titre assay. The data set is classed as cell-based, adeno-associated virus (AAV).
Data set [4] relates to 786-0 cells. The data set is classed as cell-based, Human.
For another data set, the system named is CT26WT colon carcinoma. The settings on record: mouse, in vivo.
Data set [5] has as its system 786-0 cells. The data set is classed as cell-based, Human. This is another data set of the same source.
The test system of data set [6] is VSVΔ51. It is filed as cell-based, vesicular stomatitis virus. This is another data set of the same source.
The test system of another data set is STAT1. It is filed as cell-based, Human.
Data set [7] deals with VSVΔ51. The data set is classed as cell-based, vesicular stomatitis virus. The source holds these as a separate data set.
In data set [8] the test system is VSVΔ51. The data set is classed as cell-based, vesicular stomatitis virus. The source holds these as a separate data set.
Data set [9] has as its system various human and murine cell lines.
A further data set has as its system MG-1. It is filed as cell-based, Maraba virus.
For the next data set, the system named is 4T1 mammary carcinoma. Particulars: mouse, in vivo.
For another data set, the system named is NF-κB. The data set is classed as cell-based, Human.
Data set [10] has as its system 786-0 cells.
Data set [11] relates to VSVΔ51. The data set is classed as cell-based, vesicular stomatitis virus. The source holds these as a separate data set.
The subject of a further data set is VSV-wild type-FLuc. The data set is classed as cell-based, vesicular stomatitis virus.
Another data set has as its system STAT1 and STAT2. The data set is classed as cell-based, Human.
Data set [12] relates to 786-0 cells. Put plainly: cells. Particulars: Homo sapiens, 786-0, read-out: cell viability.
For another data set, the system named is IFN-β. It is filed as cell-based, Human.

Molecules are shown by their SMILES. Residues, ends and D or L forms follow the SMILES beside them. *: point of attachment. Cbz = O=C(OCc1ccccc1)*; CH2F = FC*

One may read the viability as a per cent measure of how many cells are alive, often set against a control. For orientation: cell viability means the share of living cells, or the viability signal relative to a control. Low readings indicate a greater loss of cells, high ones better survival.

Regarding `NS(=O)(=O)OC[C@@H]1C[C@H](n2ccc3c(N[C@H]4CCc5ccccc54)ncnc32)C[C@@H]1O` [pevonedistat, ((1S,2S,4S)-4-(4-(((S)-2,3-dihydro-1H-inden-1-yl)amino)-7H-pyrrolo[2,3-d]pyrimidin-7-yl)-2-hydroxycyclopentyl) methyl sulfamate], the “increase in VSVΔ51 viral titer” value in the data set with VSVΔ51 [1] is reported as “over 30 fold”. The “viability, compound + VSVΔ51 vs compound only” value in data set [2] is given as “no significant viability differences”. The viral replication result with VSVΔ51 [3] is “does not increase viral replication”. Further, in the data set with AAV2-Fluc (HEK293, functional titre assay), the “optimal concentration for AAV2-Fluc enhancement” value fell in the range of 200 to 400 nM. Besides, in the data set with AAV2-Fluc (HEK293, treated 60 min post transfection, 72 h, over a range of concentrations), the “enhancement of AAV2-Fluc viral signal” value is given as “up to 2.6 fold”. For the same compound, in the data set on 786-0 cells [4], the “STAT1 transcription factor activity predicted by TFactS” value is listed as “inhibited”, the “downregulation of promyelocytic leukemia protein (PML) gene” value is on record as “approximately 79 fold”, the “expression of genes related to the IFN-1 GO term” value is on record as “significantly downregulated” and the genes significantly downregulated is listed as 3,326 genes. The “genes significantly upregulated (P<0.05, log 2-fold change >2)” value in the data set with 786-0 cells [4] is reported as 3,038 genes. In the data set with CT26WT colon carcinoma, the “overall survival after CT26WT re-challenge” value is given as “improved overall survival”, the “tumor volume progression after CT26WT re-challenge” value was “suppress tumor volume progression more effectively” and the tumor volumes post-treatment result is “significantly smaller”. In the data set with 786-0 cells [5], the caspase-8 activity entry is reported as “remained significantly increased”, the “cleaved caspase-3 levels” value is on record as “markedly higher levels”, the “full-length poly (ADP-ribose) polymerase (PARP) levels” value was “decreased levels” and the “proportion of Annexin V-positive cells” value is recorded as “significantly greater proportion”. The “time of peak caspase-8 activity” value in the data set with 786-0 cells [5] was 36 hpi. Also, in the data set on VSVΔ51 [6], the “VSVΔ51 growth (relative titer), multi-step growth curve” value was “robustly enhance”; the “VSVΔ51 infectivity (fluorescent signal, plaque assay)” value (“VSVΔ51 infectivity” for short) is recorded as “increased VSVΔ51 infectivity”; the “average plaque diameter (plaque expansion assay)” value is recorded as “significantly increased”; the “time of administration capable of increasing VSVΔ51 viral titer” value is listed as 24 hours prior until 4 hours after infection. In the data set with VSVΔ51 [6], the “viral GFP transgene expression” value is reported as “marked increase”. In addition, in the data set with STAT1, the “phosphorylation levels of STAT1 and STAT2 in response to IFN-β treatment” value was “unable to markedly influence”; the “protein availability of ISGF3 components including STAT1” value is reported as “global reduction in protein availability”; the “transcription of STAT1 and downstream ISGs (IRF7, MX2, IFTM1)” value is given as “significantly decrease”; the “transcription of STAT1 in the presence of exogenous IFN” value is reported as “inhibiting the transcription of STAT1”. Moreover, in the data set with VSVΔ51 [7], the “viral titer of VSVΔ51” value is “able to increase the viral titer”. Further, in the data set with VSVΔ51 [8], the VSVΔ51-GFP viral titer entry is on record as “increases” and the VSVΔ51 viral titer result is reported as “significantly increased”. Also, the “cytotoxicity in combination with VSVΔ51” value in [9] is “increased cytotoxicity”. In addition, in the data set with MG-1, the “production of MG-1” value is on record as “facilitate production”. Moreover, in the data set on 4T1 mammary carcinoma, the survival result is listed as “significantly prolonged survival” and the tumor volumes post-treatment result is “significantly smaller”. Besides, in the data set with NF-κB, the “NF-κB protein expression in nuclear fractions” value was “markedly less NF-κB protein expression” and the “transcription of pro-inflammatory cytokines controlled by NF-κB signaling including IFN-β” value is reported as “repressed transcription”. For the same compound, in the data set with 786-0 cells [10], the “cell killing and apoptosis activation” value was “increased cell killing and apoptosis activation”; the “lowest concentration with significant viability differences with vs without VSVΔ51” value is no less than 120 nM. In the data set with VSVΔ51 [11], the VSVΔ51 infection result is “able to increase VSVΔ51 infection” and the “increase in viral titer” value is listed as “over 15 fold”. Also, the “production of wild-type VSV” value in the data set with VSV-wild type-FLuc is recorded as “facilitate production”. For the same compound, in the data set with STAT1 and STAT2, the “downstream RNA levels of IFN-1 effectors” value is given as “decreased”; the “total protein levels of STAT1 and STAT2” value is on record as “decreased”. Besides, in the data set with 786-0 cells [12], the viability at 1 µM was 33%.
`COC(=O)C[C@H](NC(=O)[C@H](C)NC(=O)[C@@H](NC(=O)OCc1ccccc1)C(C)C)C(=O)CF` [Z-VAD-FMK] (Cbz-Val-Ala-Asp(OMe)-CH2F): the cell viability in the data set with 786-0 cells [10] came out at 71%.
As to `CCOc1cccc(F)c1C#Cc1cn([C@@H]2O[C@H](CNS(N)(=O)=O)[C@@H](O)[C@H]2O)c2ncnc(N)c12` [TAS4464], the “VSVΔ51 infectivity” value with VSVΔ51 [6] is on record as “increased VSVΔ51 infectivity”. The “VSVΔ51 oncolysis (cell viability, Alamar blue)” value in the data set with 786-0 cells [10] was “enhanced oncolysis”.
For the compound `Nc1ccc(SCC(=O)Nc2ccc3nc(NC(=O)c4ccc(C(F)(F)F)cc4)sc3c2)cc1` [ZM223, N-(6-(2-((4-aminophenyl)thio)acetamido)benzo[d]thiazol-2-yl)-4-(trifluoromethyl) benzamide], the “VSVΔ51 infectivity” value in the data set with VSVΔ51 [6] is given as “some viral sensitizing activity”. The IFN-β secretion entry in the data set with IFN-β is “unable to do the same”.
